Our source for the EC50 values is patent publication US12187761B2, “Compounds, compositions, and methods for the treatment of disease” (F-star Therapeutics, Inc., priority 2017, dated 2025).

The subject of one assay is IRF. Description: Induction of IRF in THP1 dual cells (ISG54 promoter Lucia reporter). The assay is classed as cell-based. The settings on record: 20 h incubation, Lucia reporter (QUANTI-luc). How it is done:
(§1) Example 6. In Vitro Induction of IRF and NF-κβ in THP1 Cells Table 2
(§2) THP1 dual cells grown in complete media were treated with various concentrations of a compound of the present disclosure or DMSO control. Dual cells carry both secreted embryonic alkaline phosphatase (SEAP) reporter gene under the control of an IFN-β minimal promoter fused to five copies of the NF-kB consensus transcriptional response element to measure NF-kB activity and Lucia reporter gene under the control of an ISG54 minimal promoter to measure IRF activity. After 20 h incubation, IRF activity was assessed using QUANTI-luc to measure levels of Lucia and NF-kB activity was determined by measure SEAP levels at 620-655 nm. % induction was calculated from fold change in luminescence/absorbance compared to DMSO treated sample. […] EC50 values were generated by curve fit in Xlfit.
(§3) Cells grown in complete media were treated with various concentrations of a compound of the disclosure or DMSO control. Dual cells carry both secreted embryonic alkaline phosphatase (SEAP) reporter gene under the control of an IFN-β minimal promoter fused to five copies of the NF-kB consensus transcriptional response element to measure NF-kB activity and Lucia reporter gene under the control of an ISG54 minimal promoter to measure IRF activity. After 20 h incubation, IRF activity was assessed using QUANTI-luc to measure levels of Lucia and NF-kB activity was determined by measure SEAP levels at 620-655 nm. % induction was calculated from fold change in luminescence/absorbance compared to DMSO treated sample. EC50 values are generated by curve fit in Xlfit.

Another assay has as its system NF-κβ. In words: Induction of NF-κβ in THP1 dual cells (SEAP reporter). Format: cell-based. The settings on record: 20 h incubation, SEAP levels at 620-655 nm. As for the experimental part: as §1, §2, §3

The structures appear in SMILES notation.

Turning to `NCCCCCCCCCCOc1ccc(C(=O)Oc2ccc(CSP3(=O)OC[C@H]4O[C@@H](n5cnc6c(N)ncnc65)[C@H](F)[C@@H]4OP(=O)(O)OC[C@H]4O[C@@H](n5ccc(=O)[nH]c5=O)[C@H](F)[C@@H]4O3)cc2)cc1` (some centres unmarked) [Compound 1], the EC50 was < 50 nM in the assay on IRF and 500 to 1000 nM in the assay on NF-κβ.
Take `NCCCOCCOCCOCCOc1ccc(C(=O)Oc2ccc(CSP3(=O)OC[C@H]4O[C@@H](n5cnc6c(N)ncnc65)[C@H](F)[C@@H]4OP(=O)(O)OC[C@H]4O[C@@H](n5ccc(=O)[nH]c5=O)[C@H](F)[C@@H]4O3)cc2)cc1` (some centres unmarked) [Compound 7]: the EC50 with IRF was 50 to 500 nM; in the assay with NF-κβ, 1000 to 2000 nM.
As to `Nc1ncnc2c1ncn2[C@@H]1O[C@@H]2COP(=O)(SCc3ccc(OC(=O)c4ccc(OCCCCCCCCCCO)cc4)cc3)O[C@H]3[C@@H](F)[C@H](n4ccc(=O)[nH]c4=O)O[C@@H]3COP(=O)(O)O[C@H]2[C@H]1F` (some centres unmarked) [Compound 2], the figures for the concentration for a half-maximal effect (EC50) in the assay with IRF and with NF-κβ were < 50 nM and 500 to 1000 nM, respectively.
The corresponding values for `C=CCCC(=O)NCCCCCCCCCCCCOc1ccc(C(=O)Oc2ccc(CSP3(=O)OC[C@H]4O[C@@H](n5cnc6c(N)ncnc65)[C@H](F)[C@@H]4OP(=O)(O)OC[C@H]4O[C@@H](n5ccc(=O)[nH]c5=O)[C@H](F)[C@@H]4O3)cc2)cc1` (some centres unmarked) [Compound 8] are 1000 to 2000 nM and > 2000 nM.

As a reminder, the EC50 is the concentration giving half of the maximal effect. Higher therefore signals a less potent agent.
